Laboratory results as given in patent publication US20180125068A1, “OCTANOIC, NONANOIC AND DECANOIC FATTY ACIDS WITH PYRETHROID ADULTICIDES” (priority 2016, published 2018).
Where two headings read alike, the source gives them in different places.

Columns and labels:
[1] = test system: Aedes aegypti resistant to permethrin (Key West strain); assay: Wind tunnel bioassay, various pyrethroids (Example 7); assay type: in vivo; conditions: pyrethroid alone 0.5% A.I., C8910 0%, 24 hours post-spray, mean
From the text: This exposed 80 caged A. aegypti to the spray. Each test was replicated four times.

[2] = test system: pyrethroid susceptible Aedes aegypti; assay: CDC bottle bioassay, susceptible strain; assay type: in vivo
Method: (§1) The following bioassays were performed to determine how pyrethroid susceptible and pyrethroid resistant Aedes aegypti responded to exposure to permethrin and the fatty acids mixture, separately and combined. The standard Centers for Disease Control (“CDC”) bottle bioassay method was used. The testing was conducted at Centro Internacional de Entrenamiento e Investigaciones Médicas (“CIDEIM”) in Colombia with susceptible and resistant Aedes aegypti. The compounds were diluted in acetone, added to the bottles, and bottles were rolled to coat them internally until dry. Susceptible and resistant mosquitoes were exposed inside the treated bottles.
(§2) Bottle bioassays assess susceptibility by measuring time-to-death of mosquitoes exposed in bottles coated internally with a “diagnostic concentration” of the test compound.

[3] = test system: pyrethroid resistant Aedes aegypti; assay: CDC bottle bioassay, resistant strain; assay type: in vivo; conditions: bottle coated with diagnostic concentration, n=5
Method: as §1, §2

[4] = test system: Aedes aegypti resistant and susceptible to permethrin; assay: WHO wind tunnel bioassay (Example 4); assay type: in vivo; conditions: 24 hour mortality
Method: In this bioassay, the standard WHO wind tunnel bioassay was used by CIDEIM. Aedes aegypti that were known to be resistant and susceptible to permethrin were used in the studies. […] solutions were prepared with the following ratios of C8, 9, 10 fatty acids mixture to permethrin: 2:1 (0.67% C8910+0.33% permethrin); 1:1 (0.5% C8910+0.5% permethrin); and 1:2 (0.33% C8910+0.67% permethrin). A one percent permethrin formulation was tested as well as a C8, 9, 10 fatty acids mixture.
The solutions were diluted in acetone to 1%, 0.1%, 0.01%, 0.001%, 0.0001%, and 0.00001%. Then 0.5 ml of each dilution was sprayed into the wind tunnel. This exposed 20 caged mosquitos to the spray. Each test was replicated three times. The 24 hour mortality was then observed. This type of assay is desirable because it tests the compounds without being formulated.

[5] = test system: Aedes aegypti resistant to permethrin (Key West strain); conditions: observed, C8910 0%
From the text: (§3) In this bioassay, Aedes aegypti known to be resistant to permethrin (Key West strain) were exposed to C8, 9, 10 alone, permethrin alone, and combinations of C8, 9, 10 and permethrin at 1:5, 1:2, 1:1, 2:1 and 5:1 ratios in a standard wind tunnel bioassay. The actives were suspended in 1 milliliter oil-based ultra-low volume sprays and sprayed into the wind tunnel. This exposed 80 caged A. aegypti to the spray. Each test was replicated four times. Fifteen-minute, one-hour and twenty-four hour mortality of the resistant A. aegypti was then observed.
(§4) Synergy was calculated using Abbott's synergy equation described in Levy Y et al., The joint action of fungicides in mixtures: comparison of two methods for synergy calculation, Bulletin OEPP/EPPO Bulletin, 1986, 16, 651-657. Specifically, a ratio greater than 1.0 of observed to expected percent mortality for combinations of two pesticides is evidence of synergy. Expected % mortality was calculated using the formula % Cexp=A+B−[…] where A is percent mortality of A. aegypti exposed to C8, 9, 10, B is percent mortality of A. aegypti exposed to permethrin and Cexp is expected percent mortality of A. aegypti exposed to a combination of C8, 9, 10 and permethrin.

[6] = test system: A. aegypti susceptible to permethrin (Benzon research strain); conditions: observed, C8910 0%
From the text: as §3, §4
In this assay, A. aegypti known to be susceptible to permethrin (Benzon research strain) were exposed to C8, 9, 10 alone, permethrin alone, and combinations of C8, 9, 10 and permethrin at 1:5, 1:2, 1:1, 2:1 and 5:1 ratios in a standard wind tunnel bioassay identical to that described above.

[7] = test system: Cimex lectularius resistant to deltamethrin (Lex8 strain); conditions: observed, d-Phenothrin 0.375% alone
Method: as §4
(§5) The actives were suspended in 1 milliliter oil-based ultra-low volume sprays and sprayed into the wind tunnel. This exposed 10 adult male beg bugs to the spray. Each test was replicated three times. 1, 2, 3 and 4-day mortality of the bed bugs was then observed.

[8] = test system: Cimex lectularius susceptible to insecticides (Harold Harlan strain); conditions: observed, d-Phenothrin 0.25% alone
Method: as §4, §5

[9] = susceptible strain, bottle coated with diagnostic concentration, n=5

## CC(C)=C[C@@H]1[C@@H](C(=O)O[C@H](C#N)c2cccc(Oc3ccccc3)c2)C1(C)C (relative stereo) [d,d,trans-cyphenothrin, d,d,trans-Cyphenothrin]
[1]
  % Mortality 24 hour: 76%

## CC1(C)C(C(=O)OC(C#N)c2cccc(Oc3ccccc3)c2)C1(C)C (centres unmarked) [Fenpropathrin]
[1]; Aedes aegypti
  mortality at 0.5 % strength: 65%

## CC1(C)C(C=C(Cl)Cl)C1C(=O)OCc1cccc(Oc2ccccc2)c1 (centres unmarked) [Permethrin]
[2]; susceptible mosquitos, at about 80 minutes, FIG. 1
  mortality: ~100%
[2]; [9]
  LT50: 18.8 min
  LT99: 99.3 min
[3]
  LT50: 73.5 min
  LT99: 306.7 min
[4]
  mortality rate of resistant compared with susceptible mosquitos: lower mortality rates
[5]; 15 min, Permethrin 1.6%
  % Mortality: 28.1%
[5]; 15 min, Permethrin 4.0%
  % Mortality: 34.4%
[5]; 1 hour, Permethrin 1.6%
  % Mortality: 41.6%
[5]; 1 hour, Permethrin 4.0%
  % Mortality: 49.4%
[5]; 24 hour, Permethrin 1.6%
  % Mortality: 55.0%
[5]; 24 hour, Permethrin 4.0%
  % Mortality: 63.4%
[6]; 15 min, Permethrin 0.4%
  % Mortality: 4.4%
[6]; 15 min, Permethrin 1.0%
  % Mortality: 26.9%
[6]; 1 hour, Permethrin 0.4%
  % Mortality: 34.1%
[6]; 1 hour, Permethrin 1.0%
  % Mortality: 54.4%
[6]; 24 hour, Permethrin 0.4%
  % Mortality: 42.5%
[6]; 24 hour, Permethrin 1.0%
  % Mortality: 65.3%

## CC(C)=CC1C(C(=O)OCc2cccc(Oc3ccccc3)c2)C1(C)C (stereo not drawn) [d-Phenothrin, Sumithrin (d-phenothrin)]
[7]; 1 day
  % Mortality: 6.7%
[7]; 2 days
  % Mortality: 10.0%
[8]; 1 day
  % Mortality: 0.0%
[8]; 2 days
  % Mortality: 0.0%
[8]; 3 days
  % Mortality: 46.7%
[8]; 4 days
  % Mortality: 56.7%
